US7196084B2, “Cdc25 phosphatase inhibitors” (Societe de Conseils de Recherches et d'Applications …, priority 2000, dated 2007)
Where a name gives a salt, the structure may show the parent alone.

Legend:
[1] = test system: Mia-PaCa2 (human pancreatic cancer cells); assay: Anti-proliferative activity, WST1 colorimetric test, Mia-PaCa2; type: cell-based; conditions: MIA PaCa-2, treated for 96 hours, read-out: IC50 on the cell proliferation of Mia-Paca2 lines
Description: c) Characterization of the Anti-proliferative Activity:
By way of example, the effect of a treatment on two lines of human Mia-Paca2 and DU145 cells with compounds of Examples 1–5 described previously will be studied. The cell lines DU145 (human prostate cancer cells) and Mia-PaCa2 (human pancreatic cancer cells) were acquired from the American Tissue Culture Collection (Rockville, Md., USA). The cells placed in 80 μL of Dulbecco's modified Eagle medium (Gibco-Brl, Cergy-Pontoise, France) completed with 10% foetal calf serum inactivated by heating (Gibco-Brl, Cergy-Pontoise, France), 50000 units/l of penicillin and 50 mg/l streptomycin (Gibco-Brl, Cergy-Pontoise, France), and 2 mM of glutamine (Gibco-Brl, Cergy-Pontoise, France) were seeded on a 96-well plate on day 0. The cells were treated on day 1 for 96 hours with increasing concentrations of each of the compounds to be tested up to 50 μg/ml. At the end of this period, quantification of cell proliferation is evaluated by a colorimetric test based on the cleavage of the tetrazolium salt WST1 by mitochondrial dehydrogenases in viable cells leading to the formation of formazan (Boehringer Mannheim, Meylan, France). These tests are carried out in duplicate with 8 determinations per concentration tested. For each compound to be tested, the values included in the linear part of the sigmoid were retained for linear regression analysis and used to estimate the inhibitory concentration IC50. The products are solubilized in dimethylsulphoxide (DMSO) at 10^−2 M and finally used in culture with 0.5% DMSO.

Structure (SMILES)	IC50 [1] [µM]	melting point [°C]
CN(CCc1ccc([N+](=O)[O-])cc1)Cc1cc(N(C)C)ccc1O [Example 2, 4-(dimethylamino)-2-({methyl[2-(4-nitrophenyl)ethyl]amino}methyl)phenol]	≤ 100	
CN(C)c1ccc(NC(=O)CCNCc2cccc(N=C(N)c3cccs3)c2)cc1 [Example 4, 3-[(3-{[amino(2-thienyl)methylidene]amino}-benzyl)amino]-N-[4-(dimethylamino)phenyl]propanamide hydrochloride]	≤ 100	
CN1CCN(c2ccc(NC(=O)CCCc3ccc(N)cc3)cc2)CC1.Cl [Example 5, 4-(4-aminophenyl)-N-[4-(4-methyl-1-piperazinyl)phenyl]butanamide hydrochloride]		156 to 158
COc1cc(N(C)C)cc(CNCCc2ccc([N+](=O)[O-])cc2)c1O [Example 6, 4-(dimethylamino)-2-methoxy-6-({[2-(4-nitrophenyl)ethyl]amino}methyl)phenol]	≤ 100	
CN(C)c1ccc(O)c(CNCCc2ccc([N+](=O)[O-])cc2)c1 [Example 7, 4-(dimethylamino)-2-({[2-(4-nitrophenyl)ethyl]amino}methyl)phenol]	≤ 100	
COc1cc(CN(C)CCc2ccc([N+](=O)[O-])cc2)cc(N(C)C)c1O [Example 8, 2-(dimethylamino)-6-methoxy-4-({methyl[2-(4-nitrophenyl)ethyl]amino}methyl)phenol]	≤ 100	
CN(CCc1ccc([N+](=O)[O-])cc1)Cc1cc(O)ccc1O [Example 9, 2-({methyl [2-(4-nitrophenyl)ethyl]amino}methyl)-1,4-benzenediol]	≤ 100	
COc1cc(N(C)C)cc(CN(C)CCc2ccc([N+](=O)[O-])cc2)c1OC(C)=O [Example 10, 4-(dimethylamino)-2-methoxy-6-({methyl[2-(4-nitrophenyl)ethyl]amino}methyl)phenyl acetate]	≤ 100	
O=C(NCCc1ccc([N+](=O)[O-])cc1)c1cc2cc(O)ccc2cc1O [Example 11, 3,7-dihydroxy-N-[2-(4-nitrophenyl)ethyl]-2-naphthamide]	≤ 100	> 250
CS(=O)(=O)Nc1ccc(CCNC(=O)c2cc3cc(O)ccc3cc2O)cc1 [Example 16, 3,7-dihydroxy-N-(2-{4-[(methylsulphonyl)amino]phenyl}ethyl)-2-naphthamide]	≤ 100	176 to 178
CCCCS(=O)(=O)Nc1ccc(CCNC(=O)c2cc3cc(O)ccc3cc2O)cc1 [Example 17, N-(2-{4-[(butylsulphonyl)amino]phenyl}ethyl)-3,7-dihydroxy-2-naphthamide]	≤ 100	193 to 195
Cc1ccc(S(=O)(=O)Nc2ccc(CCNC(=O)c3cc4cc(O)ccc4cc3O)cc2)cc1 [Example 18, 3,7-dihydroxy-N-[2-(4-{[(4-methylphenyl)sulphonyl]amino}phenyl)ethyl]-2-naphthamide]	≤ 100	182 to 184
O=C(NCCc1ccc(NS(=O)(=O)c2ccc(F)cc2)cc1)c1cc2cc(O)ccc2cc1O [Example 28, N-[2-(4-{[(4-fluorophenyl)sulphonyl]amino}phenyl)ethyl]-3,7-dihydroxy-2-naphthamide]	≤ 100	
CC1CCN(S(=O)(=O)c2cccc(CNC(=O)c3cc4cc(O)ccc4cc3O)c2)CC1 [Example 29, 3,7-dihydroxy-N-{3-[(4-methyl-1-piperidinyl)sulphonyl]benzyl}-2-naphthamide]	≤ 100	
CS(=O)(=O)N1CCN(C(=O)c2cc3cc(O)ccc3cc2O)CC1 [Example 32, 3-{[4-(methylsulphonyl)piperazin-1-yl]carbonyl}naphthalene-2,6-diol]		124 to 126
CCCCS(=O)(=O)N1CCN(C(=O)c2cc3cc(O)ccc3cc2O)CC1 [Example 33, 3-{[4-(butylsulphonyl)piperazin-1-yl]carbonyl}naphthalene-2,6-diol]		105 to 110
